For two compounds, Activity and EC50 results are on record in ChEMBL document CHEMBL5046303, “Discovery of TAK-925 as a Potent, Selective, and Brain-Penetrant Orexin 2 Receptor Agonist” (ACS Med Chem Lett, 2022).

pEC50: −log10 of the molar value. Activity calls are given as the source filed them. The calls are words filed in the database; no cut-off is given here.

The test system of assay [1] is Mus musculus. Nature of the assay: Sleep modulation activity in ICR mouse assessed as increase in time spent in wakefulness at 3 mg/kg, sc administered at zeitgeber time 5 measured after 3 hrs post injection. The assay is classed as functional, organism-based.
For assay [2], the target named is T1, Orexin receptor type 2 (Homo sapiens, UniProt O43614).
T1 sequence (O43614 whole entry): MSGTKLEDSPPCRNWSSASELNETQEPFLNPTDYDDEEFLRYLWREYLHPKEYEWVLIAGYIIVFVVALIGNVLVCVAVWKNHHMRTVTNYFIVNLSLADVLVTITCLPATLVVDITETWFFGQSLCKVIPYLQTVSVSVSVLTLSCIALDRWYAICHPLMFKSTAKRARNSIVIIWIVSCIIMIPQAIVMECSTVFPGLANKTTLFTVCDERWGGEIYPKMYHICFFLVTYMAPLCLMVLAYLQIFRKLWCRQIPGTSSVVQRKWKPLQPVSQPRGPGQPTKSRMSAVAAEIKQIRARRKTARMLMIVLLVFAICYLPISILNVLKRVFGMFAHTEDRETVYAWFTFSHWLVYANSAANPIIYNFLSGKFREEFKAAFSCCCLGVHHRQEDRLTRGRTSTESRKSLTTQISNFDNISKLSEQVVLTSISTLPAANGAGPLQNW
The experiment in a line: Agonist activity at human OX2R expressed in CHO-K1 cells by FLIPR calcium flux assay. The assay is classed as functional, cell-based.

As for `COC(=O)N1CCC[C@H](NS(C)(=O)=O)[C@@H]1CO[C@H]1CC[C@@H](c2ccccc2)CC1`, in assay [1], the outcome was Active.

As a reminder, the pEC50 is −log10 of the EC50, conventionally taken in molar units. For the compound `CC[C@H](C)[C@H](NC(=O)CNC(=O)[C@H](C)NC(=O)[C@H](C)NC(=O)[C@H](Cc1cnc[nH]1)NC(=O)[C@H](CC(N)=O)NC(=O)CNC(=O)[C@H](C)NC(=O)CNC(=O)[C@H](Cc1cnc[nH]1)NC(=O)[C@H](CC(C)C)NC(=O)[C@H](CC(C)C)NC(=O)[C@H](CCC(=O)O)NC(=O)[C@H](Cc1ccc(O)cc1)NC(=O)[C@H](CC(C)C)NC(=O)[C@H](CCCNC(=N)N)NC(=O)[C@H](CS)NC(=O)[C@H](CO)NC(=O)[C@H](CS)NC(=O)[C@@H](NC(=O)[C@H](CCCCN)NC(=O)[C@H](CCC(N)=O)NC(=O)[C@H](CCCNC(=N)N)NC(=O)[C@H](CS)NC(=O)[C@H](CS)NC(=O)[C@H](CC(=O)O)NC(=O)[C@@H]1CCCN1C(=O)[C@H](CC(C)C)NC(=O)[C@@H]1CCCN1C(=O)[C@@H]1CCC(=O)N1)[C@@H](C)O)C(=O)N[C@@H](CC(C)C)C(=O)N[C@H](C(=O)N[C@@H](CC(C)C)C(=O)O)[C@@H](C)O`, the pEC50 in assay [2] was 9.74.
